Read-outs that look alike come from different tables or passages of the source.
Key:
[1] = system: cell extracts of Pichia sp. NRRL Y-11,328; assay: NAD+-dependent oxidation of secondary alcohols by cell extracts of yeasts; format: biochemical; conditions: grown on methanol, gas chromatography
[2] = system: Torulopsis sp. Strain A1 (NRRL Y-11,419); assay: Oxidation of sec-alcohols to ketones by cell suspensions of yeasts; format: cell-based
[3] = system: cell extracts of Kloeckera sp. strain A2 NRRL Y-11,420; assay: NAD+-dependent oxidation of secondary alcohols by cell extracts of yeasts; format: biochemical; conditions: for Conversion Rate, secondary alcohol to methylketone: cell extracts, grown on methanol, NAD+, gas chromatography
[4] = system: Pseudomonas sp. ATCC 21439; assay: Oxidation of sec-alcohols to ketones by resting cell suspension; format: cell-based; conditions: methanol-grown, obligate
Description: (§1) The pH of the nutrient medium was adjusted to 7.0 by the addition of acid or base and 50 ml. samples of the nutrient medium were charged into a plurality of 300 ml. shaker flasks. The shaker flasks were inoculated with an inoculating loop of cells from an agar plate containing homogeneous colonies of the microorganisms on the plate (the purity of the isolates was confirmed by microscopic examination). The isolates had been maintained on methanol (0.4% V/V) agar plates or on agar plates under an atmosphere of methane and air having a 1:1 V/V gas ratio which had been transferred every two weeks. For growth on methanol, the medium was supplemented with 0.4% methanol. For growth on methane, the gaseous phase of the inoculated flasks was replaced with a gas mixture comprised on methane and air having a ratio of 1:1 on a V/V basis. The inoculated flasks were sealed air-tight and were incubated on a rotary shaker of orbital radius 2.5 cm. at 250 rpm and at 30° C. for two days until turbidity in the medium had developed. The cells were harvested by centrifugation at 10,000×g. at 4° C. for 30 minutes. The cell pellet was washed twice with a 0.05 M phosphate buffer at a pH of 7.0 (containing 0.02 M MgCl2). The washed cells were then suspended in a 0.05 M phosphate buffer at pH 7.0.
(§2) A 0.5 ml. sample of each washed cell suspension (2 mg. cells) was put into 10 ml. vials at 4° C. which were sealed with a rubber cap. The gaseous phase of the vials was removed with vacuum and then was replaced with a gas mixture of the substrate reactant (i.e., alkane or secondary alcohol) and oxygen at a 1:1 V/V ratio. (In the case of a liquid substrate, i.e., secondary alcohol, 10 μl of the substrate was put in the 10 ml. vials). […] Samples of product (1-3 μl) were withdrawn periodically with a microsyringe and the products were analyzed by gas chromatography (ionization flame detector column).
(§3) The procedure in Example 1 was repeated except that a plurality of methanol-utilizing methylotrophic microorganisms were each aerobically grown in a methanol-containing nutrient medium instead of a methane-containing medium. The nutrients in the medium were the same as indicated in Example 1 except that 0.4% V/V methanol was used as the alcohol dehydrogenase inducer and as the major carbon and energy source for growth. The cells were harvested and washed as described in Example 1. The resting microbial cells of the induced methanol-grown methanol-utilizing methylotrophic microorganisms were then contacted with C3 -C6 secondary alcohols in a buffered solution by the procedure of Example 1.

[5] = system: Pseudomonas MS ATCC 25262; assay: as above; format: cell-based; conditions: methanol-grown, facultative
Description: as §1, §2, §3

[6] = system: Hansenula polymorpha ATCC 26012; assay: Oxidation of sec-alcohols to ketones by cell suspensions of yeasts; format: cell-based
[7] = system: Pseudomonas sp. ATCC 21438; assay: Oxidation of sec-alcohols to ketones by resting cell suspension; format: cell-based
Description: as §1, §2, §3
(§4) The procedure in Example 1 was repeated except that the methylotrophic microorganisms were each aerobically grown in an alcohol dehydrogenase-inducing growth medium containing methylamine or methyl formate as the alcohol dehydrogenase enzyme inducer and growth substrate instead of methane. The nutrients in the medium were the same as indicated in Example 1 except that 0.4% V/V of the alcohol dehydrogenase-inducer growth substrate was used as the major carbon and energy source. The cells were harvested and washed as described in Example 1. The resting microbial cells were then contacted with C3 -C6 secondary alcohols in a buffered solution by the conversion procedure of Example 1.

[8] = system: Methanomonas methylovora ATCC 21852; assay: as above; format: cell-based
Description: as §1, §2, §3, §4

[9] = system: secondary alcohol dehydrogenase; assay: Activity of purified yeast-derived secondary alcohol dehydrogenase; format: biochemical, Pichia sp. NRRL Y-11,328
[10] = system: cell extracts of Torulopsis sp. strain A1 NRRL Y-11,419; assay: NAD+-dependent oxidation of secondary alcohols by cell extracts of yeasts; format: biochemical; conditions: for Conversion Rate, secondary alcohol to methylketone: cell extracts, grown on methanol, NAD+, gas chromatography
[11] = system: cell-free soluble extract of Methylobacterium organophilum CRL 26 (NRRL B-11,222); assay: Oxidation of secondary alcohols by cell-free soluble extract (NAD added); format: biochemical; conditions: soluble crude extract, grown on methanol
Description: (§5) To prepare the cell-free secondary alcohol dehydrogenase (SADH) system, the washed cells were disrupted with a Wave Energy Ultrasonic Oscillator, Model W201 (Wave Energy System, Inc., Newtown, Pa.) and centrifuged at 20,000× g. for 30 minutes. […] The enzyme activity was measured with a fluorescence spectrophotometer (Perkin Elmer, Model MPF 44A) by following the formation of reduced NAD (EX 340 nm, Em 460 nm). The formation of reduced NAD was also followed with an absorption spectrophotometer at 340 nm. The assay system (3 ml.) contained: potassium phosphate buffer pH 7.0; 150 μmol.; NAD 1 μmol.; a given amount of enzyme preparation; and secondary alcohol 10 μmol. The reaction was started by the addition of substrate. One unit of enzyme activity represents the reduction of one μmole NAD per minute. Protein concentrations were determined by the Lowry method (J. Biol. Chem., 193: 255-275 (1951)).
(§6) The experimental procedure for the tests reported in Table VIII were as follows: 1 mg protein of crude extract was added into a 0.5 ml. 0.05 M phosphate buffer (pH 7.0) in a 10-ml. vial. […] The reaction mixture was incubated at 30° C. on a water bath. A 3 μl sample was removed with a syringe at 15 min. of incubation and was assayed with g.l.c. Catalytic activity was also assayed by fluorescence spectrophotometry.

[12] = system: cell-free soluble extract of Methylosinus trichosporium OB3b (NRRL B-11,196); assay: as above; format: biochemical; conditions: soluble crude extract, grown on methanol
Description: as §5, §6

[13] = system: cell-free soluble extract of Pseudomonas sp. CRL 75 (ATCC 21,439); assay: as above; format: biochemical; conditions: soluble crude extract, grown on methanol
Description: as §5, §6

[14] = system: cell-free soluble extract of Methylococcus capsulatus CRL M1 (NRRL B-11,219); assay: as above; format: biochemical; conditions: soluble crude extract, grown on methanol
Description: as §5, §6

[15] = spectrophotometric, 2-butanol as substrate

CCC(C)O (stereo not drawn) [2-Butanol, 2-butanol]
Conversion Rate, secondary alcohol to methylketone [1]: 6.2 μmoles/hr/mg Protein | Conversion Rate, sec-alcohol to ketone ([2]; growth substrate Ethanol): 4.7 μmoles/hr/mg of protein | Conversion Rate, sec-alcohol to ketone ([2]; growth substrate Methanol): 4.9 μmoles/hr/mg of protein | Conversion Rate, sec-alcohol to ketone ([2]; growth substrate Methylamine): 4.5 μmoles/hr/mg of protein | Conversion Rate, sec-alcohol to ketone ([2]; growth substrate Methylformate): 4.9 μmoles/hr/mg of protein | Conversion Rate, sec-alcohol to ketone ([2]; growth substrate Propylamine): 3.8 μmoles/hr/mg of protein | Conversion Rate, secondary alcohol to methylketone [3]: 5.9 μmoles/hr/mg Protein | specific activities [3, 15]: 90 nmoles NAD^+ reduced per min. per mg. protein | Conversion Rates, sec-alcohol to methyl ketone [4]: 4.7 μmoles/hr/mg protein | Conversion Rates, sec-alcohol to methyl ketone [5]: 3.5 μmoles/hr/mg protein | Conversion Rate, sec-alcohol to ketone ([6]; growth substrate Ethanol): 4.8 μmoles/hr/mg of protein | Conversion Rate, sec-alcohol to ketone ([6]; growth substrate Methanol): 5.8 μmoles/hr/mg of protein | Conversion Rate, sec-alcohol to ketone ([6]; growth substrate Methylamine): 4.5 μmoles/hr/mg of protein | Conversion Rate, sec-alcohol to ketone ([6]; growth substrate Methylformate): 5.2 μmoles/hr/mg of protein | Conversion Rate, sec-alcohol to ketone ([6]; growth substrate Propylamine): 4.0 μmoles/hr/mg of protein | Conversion Rates, sec-alcohol to methyl ketone ([7]; methanol-grown, facultative): 3.2 μmoles/hr/mg protein | Conversion Rates, sec-alcohol to methyl ketone ([7]; methyl formate-grown): 3.2 μmoles/hr/mg protein | Conversion Rates, sec-alcohol to methyl ketone ([7]; methylamine-grown): 2.1 μmoles/hr/mg protein | Conversion Rates, sec-alcohol to methyl ketone ([8]; methanol-grown, obligate): 2.5 μmoles/hr/mg protein | Conversion Rates, sec-alcohol to methyl ketone ([8]; methyl formate-grown): 2.1 μmoles/hr/mg protein | Conversion Rates, sec-alcohol to methyl ketone ([8]; methylamine-grown): 3.2 μmoles/hr/mg protein | substrate specificity of purified yeast secondary alcohol dehydrogenase (in words) [9]: catalyzed the oxidation | Conversion Rate, secondary alcohol to methylketone [10]: 4.9 μmoles/hr/mg Protein | specific activities [10, 15]: 62 nmoles NAD^+ reduced per min. per mg. protein | Oxidation Rate, sec-alcohol to methyl ketone [11]: 2.5 nmole/min/mg protein | Oxidation Rate, sec-alcohol to methyl ketone [12]: 2.4 nmole/min/mg protein | Oxidation Rate, sec-alcohol to methyl ketone [13]: 25.0 nmole/min/mg protein | Oxidation Rate, sec-alcohol to methyl ketone [14]: 2.0 nmole/min/mg protein

CCCCC(C)O (stereo not drawn) [2-Hexanol, 2-hexanol]
Conversion Rate, secondary alcohol to methylketone [1]: 0.60 μmoles/hr/mg Protein | Conversion Rate, sec-alcohol to ketone ([2]; growth substrate Ethanol): 0.20 μmoles/hr/mg of protein | Conversion Rate, sec-alcohol to ketone ([2]; growth substrate Methanol): 0.21 μmoles/hr/mg of protein | Conversion Rate, sec-alcohol to ketone ([2]; growth substrate Methylamine): 0.12 μmoles/hr/mg of protein | Conversion Rate, sec-alcohol to ketone ([2]; growth substrate Methylformate): 0.25 μmoles/hr/mg of protein | Conversion Rate, sec-alcohol to ketone ([2]; growth substrate Propylamine): 0.10 μmoles/hr/mg of protein | Conversion Rate, secondary alcohol to methylketone [3]: 0.25 μmoles/hr/mg Protein | Conversion Rates, sec-alcohol to methyl ketone [4]: 0.03 μmoles/hr/mg protein | Conversion Rates, sec-alcohol to methyl ketone [5]: 0.80 μmoles/hr/mg protein | Conversion Rate, sec-alcohol to ketone ([6]; growth substrate Ethanol): 0.54 μmoles/hr/mg of protein | Conversion Rate, sec-alcohol to ketone ([6]; growth substrate Methanol): 0.72 μmoles/hr/mg of protein | Conversion Rate, sec-alcohol to ketone ([6]; growth substrate Methylamine): 0.62 μmoles/hr/mg of protein | Conversion Rate, sec-alcohol to ketone ([6]; growth substrate Methylformate): 0.70 μmoles/hr/mg of protein | Conversion Rate, sec-alcohol to ketone ([6]; growth substrate Propylamine): 0.48 μmoles/hr/mg of protein | Conversion Rates, sec-alcohol to methyl ketone ([7]; methanol-grown, facultative): 0.7 μmoles/hr/mg protein | Conversion Rates, sec-alcohol to methyl ketone ([7]; methyl formate-grown): 0.80 μmoles/hr/mg protein | Conversion Rates, sec-alcohol to methyl ketone ([7]; methylamine-grown): 0.07 μmoles/hr/mg protein | Conversion Rates, sec-alcohol to methyl ketone ([8]; methanol-grown, obligate): 1.0 μmoles/hr/mg protein | Conversion Rates, sec-alcohol to methyl ketone ([8]; methyl formate-grown): 0.60 μmoles/hr/mg protein | Conversion Rates, sec-alcohol to methyl ketone ([8]; methylamine-grown): 0.09 μmoles/hr/mg protein | substrate specificity of purified yeast secondary alcohol dehydrogenase (in words) ([9]; spectrophotometric): catalyzed the oxidation | Conversion Rate, secondary alcohol to methylketone [10]: 0.21 μmoles/hr/mg Protein | Oxidation Rate, sec-alcohol to methyl ketone [11]: 0 nmole/min/mg protein | Oxidation Rate, sec-alcohol to methyl ketone [12]: 0 nmole/min/mg protein | Oxidation Rate, sec-alcohol to methyl ketone [13]: 0 nmole/min/mg protein | Oxidation Rate, sec-alcohol to methyl ketone [14]: 0 nmole/min/mg protein

Reference: US4268630A, “Microbiological production of ketones from C3 -C6 alkanes” (priority 1979, dated 1981)
